Values joined by “and” are separate entries in the source; they are usually repeats but may differ in a detail not shown here. Identical values can stand only once.
What was measured:
[1] = xn = mol fraction of the nth substance listed

C=CC[n+]1ccn(C)c1.[Cl-]
Conditions | viscosity [mPa·s]
298.15 K, 101 kPa | 254.5

CC(C)C1CCCCC1
100 kPa
Conditions | viscosity
293.15 K | 1.098 mPa·s
303.15 K | 0.949 mPa·s and 0.95 mPa·s
308.15 K | 0.885 mPa·s and 0.889 mPa·s
313.15 K | 0.83 mPa·s and 0.833 mPa·s
318.15 K | 0.781 mPa·s and 0.783 mPa·s
323.15 K | 0.736 mPa·s

CC(Cl)(Cl)Cl
viscosity
Conditions | 101 kPa | 101.3 kPa | 101.32 kPa | 101.33 kPa
303.15 K | 0.7243 mPa·s and 0.7245 mPa·s | 0.7275 mPa·s | 0.642 mPa·s and 0.7243 mPa·s | 0.7243 mPa·s
313.15 K | – | – | 0.583 mPa·s | –

CC/C(C)=N/O
101.3 kPa
Conditions | viscosity
293.15 K | 4.767 mPa·s
298.15 K | 4.016 mPa·s and 4.02 mPa·s
303.15 K | 3.437 mPa·s

CCCCCBr
101 kPa
Conditions | viscosity [mPa·s]
293.15 K | 0.798
303.15 K | 0.709
308.15 K | 0.6509
313.15 K | 0.637
323.15 K | 0.574

CCCCCCCCn1cc[n+](C)c1.[Cl][Fe-]([Cl])([Cl])[Cl]
101 kPa
Conditions | viscosity [mPa·s]
293.15 K | 167
298.15 K | 133.2
303.15 K | 106
308.15 K | 84.71
313.15 K | 68.3
318.15 K | 55.87
323.15 K | 46.6

CCCC[N+](CCCC)(CCCC)CCCC.[OH-]
viscosity [mPa·s]
Conditions | 298.15 K | 303.15 K | 308.15 K | 313.15 K
100 kPa | 6.69 | 6.49 | 6.29 | 6.13
101 kPa | 6.69 | 6.49 | 6.29 | 6.13

CCn1cc[n+](CCOC)c1.N#C[S-]
100 kPa
Conditions | viscosity [mPa·s]
293.15 K | 70.77
298.15 K | 55.77
303.15 K | 44.34
308.15 K | 36
313.15 K | 29.73
318.15 K | 24.89

COC(=O)c1ccccc1C(=O)OC
101 kPa
Conditions | viscosity [mPa·s]
293.15 K | 17.63
298.15 K | 13.8
303.15 K | 11.07
308.15 K | 9.064
313.15 K | 7.558
318.15 K | 6.4
323.15 K | 5.493

O=CC(Br)(Br)Br
101.33 kPa
Conditions | viscosity [mPa·s]
293.15 K | 6.81
313.15 K | 3.72

O=CO
viscosity
Conditions | 293.15 K | 298.15 K | 303.15 K | 308.15 K | 313.15 K | 318.15 K | 323.15 K
101 kPa | – | – | 1.43 mPa·s and 1.434 mPa·s (2×) | 1.304 mPa·s | – | 1.089 mPa·s | 0.9767 mPa·s
101.33 kPa | 1.959 mPa·s | 1.51 mPa·s | 1.36 mPa·s | 1.25 mPa·s | 1.291 mPa·s and 1.15 mPa·s | – | –

O=CO + O=[N+]([O-])c1ccccc1
viscosity [mPa·s], [1], 101 kPa
Conditions | x1 = 0.1791 | x1 = 0.2956 | x1 = 0.4132 | x1 = 0.5229 | x1 = 0.6396 | x1 = 0.7402 | x1 = 0.8361
298.15 K | 1.676 | 1.636 | 1.604 | 1.591 | 1.593 | 1.592 | 1.576
323.15 K | 1.114 | 1.084 | 1.054 | 1.043 | 1.025 | 1.029 | 1.005

C1CN2CN3CCN(CN1C3)C2 + [2H]O[2H]
viscosity [mPa·s], [1], 101 kPa
Conditions | x1 = 0.004058 | x1 = 0.008015 | x1 = 0.01192 | x1 = 0.01581 | x1 = 0.02009
293.15 K | 1.263 | 1.307 | 1.389 | 1.485 | 1.602
298.15 K | 1.128 | 1.174 | 1.233 | 1.315 | 1.426
300.15 K | 1.018 | 1.066 | 1.131 | 1.225 | 1.352
305.15 K | 0.918 | 0.975 | 1.042 | 1.133 | 1.251

CC(Cl)(Cl)Cl + c1ccccc1
[1], 303.15 K, 101 kPa
Conditions | viscosity [mPa·s]
x1 = 0.1318 | 0.5946
x1 = 0.2306 | 0.614
x1 = 0.3381 | 0.6341
x1 = 0.4104 | 0.6461
x1 = 0.4894 | 0.6588
x1 = 0.5844 | 0.6709
x1 = 0.6716 | 0.6831
x1 = 0.7484 | 0.6926
x1 = 0.8648 | 0.706
x1 = 0.9221 | 0.7138

CC(O)c1ccccc1 (centres undefined) + c1ccccc1
[1], 293.15 K, 101.32 kPa
Conditions | viscosity [mPa·s]
x1 = 0.01616 | 0.6575
x1 = 0.05419 | 0.708
x1 = 0.09606 | 0.7832
x1 = 0.1306 | 0.85
x1 = 0.1766 | 0.9508

CCCCCBr + c1ccccc1
[1], 308.15 K, 101 kPa
Conditions | viscosity [mPa·s]
x2 = 0.0961 | 0.6279
x2 = 0.2061 | 0.6028
x2 = 0.2972 | 0.5854
x2 = 0.3978 | 0.5636
x2 = 0.4978 | 0.5452
x2 = 0.5868 | 0.5316
x2 = 0.7022 | 0.5149
x2 = 0.8752 | 0.5028
x2 = 0.9275 | 0.503

O=CO + c1ccncc1
viscosity [mPa·s], [1], 101 kPa
Conditions | 298.15 K | 323.15 K
x1 = 0.1605 | 0.9921 | 0.7018
x1 = 0.3041 | 1.235 | 0.8411
x1 = 0.4426 | 1.783 | 1.154
x1 = 0.5254 | 2.414 | 1.515
x1 = 0.6438 | 4.255 | 2.347
x1 = 0.7065 | 5.476 | 2.846
x1 = 0.7478 | 6.13 | 3.143
x1 = 0.7762 | 6.161 | 3.202
x1 = 0.8243 | 5.312 | 2.873
x1 = 0.8859 | 3.778 | 2.192
x1 = 0.9381 | 2.657 | 1.616
